Data taken from patent publication US20100247629A1, “Method for drug loading in liposomes” (Yissum Research Development Company of the Hebrew …, priority 2003, published 2010).

Experiments:
KB-V [1] = test: In vitro uptake of doxorubicin into tumor cells; type: cell-based, human
Procedure: (§1) There is a greater drug accumulation in cells treated with lipo-dox-AG than in those treated with lipo-dox-AS.
(§2) Cellular accumulation of doxorubicin was assayed by a method similar to that described in Chambers, S. K. et al., Cancer Res., 49:6275-6279 (1989). […] At the end of the incubation, the cells were rinsed three times with PBS and the drug was extracted from the cells with 1 mL acidified isopropanol (0.075 M HCl in 90% isopropanol), for 20 hours at 4° C. Doxorubicin concentration was determined spectrofluorometrically using an excitation wavelength of 470 nm and an emission wavelength of 590 nm. The fluorescence intensity emitted was translated into doxorubicin-equivalents based on a doxorubicin standard curve, after readings of untreated background cells were subtracted.

KB [2] = test: In vitro uptake of doxorubicin into tumor cells; type: cell-based, human
Procedure: as §1, §2

M109-R [3] = test: In vitro cytotoxicity (growth inhibition, methylene blue); type: cell-based, mouse; conditions: M109-R (doxorubicin-resistant); continuous exposure 72 hours
Procedure: (§3) M109-R and KB-V cell lines are doxorubicin-resistant sublines of M109-S and KB, respectively. The cells were exposed continuously to the drug formulation for 72 hours following the experimental details described by Horowitz, et al., Biochimica et Biophysica Acta, 1109:203-209 (1992) and also in Example 2.
(§4) Cells for each line were exposed continuously to drug for 72 hours. Other experimental details were as described by Horowitz et al., Biochem Biophys Acta, 1109(2):203 (1992). Briefly, 5×10^3 cells from exponentially growing cultures in 200 μL aliquots were plated onto 96-well flat-bottom microtiter plates. […] For each 10-fold increase in drug concentration, six drug concentration points were tested. Each test was performed in triplicate wells and in two parallel plates. The cells were treated continuously for 72 hours. The cultures were fixed by the addition of 50 μL 2.5% glutaraldehyde to each well for 10 minutes. The plates were washed three times with de-ionized water, once with 0.1 M borate buffer (pH 8.5) and then stained for 60 minutes with 100 μL methylene blue (1% in 0.1 M buffer borate, pH 8.5) at room temperature. […] The dye was extracted with 200 μL 0.1 M HCl for 60 min at 37° C. and the optical density was determined using a microplate spectrophotometer.
(§5) The growth rate was calculated by dividing the doubling times of drug-treated cells with those of the control cells.

M109-S = test: as above; type: cell-based, mouse; conditions: continuous exposure 72 hours
Procedure: as §3, §4, §5

M109-R [4] = test: In vitro uptake of doxorubicin into tumor cells; type: cell-based, mouse; conditions: 24 exposure
Procedure: as §1, §2

KB-V [5] = test: In vitro cytotoxicity (growth inhibition, methylene blue); type: cell-based, human; conditions: KB-V (doxorubicin-resistant); continuous exposure 72 hours
Procedure: as §3
(§6) Cells for each line were exposed continuously to drug for 72 hours. Other experimental details were as described by Horowitz et al., Biochem Biophys Acta, 1109(2):203 (1992). Briefly, 5×10^3 cells from exponentially growing cultures in 200 μL aliquots were plated onto 96-well flat-bottom microtiter plates. […] For each 10-fold increase in drug concentration, six drug concentration points were tested. Each test was performed in triplicate wells and in two parallel plates. The cells were treated continuously for 72 hours. The cultures were fixed by the addition of 50 μL 2.5% glutaraldehyde to each well for 10 minutes. The plates were washed three times with de-ionized water, once with 0.1 M borate buffer (pH 8.5) and then stained for 60 minutes with 100 μL methylene blue (1% in 0.1 M buffer borate, pH 8.5) at room temperature. The plates were rinsed in five baths of de-ionized water to remove non-cell bound dye and were then dried. The dye was extracted with 200 μL 0.1 M HCl for 60 min at 37° C. and the optical density was determined using a microplate spectrophotometer.
as §5

KB [6] = test: as above; type: cell-based, human; conditions: continuous exposure 72 hours
Procedure: as §3, §6, §5

C26 = test: as above; type: cell-based, human; conditions: continuous exposure 72 hours
Procedure: as §3, §6, §5

C-26 cells = test: In vivo therapeutic activity, C-26 tumor survival; set-up: species or system mice; conditions: C-26 tumor i.p., 10 mg/kg i.v. five days after inoculation
Source text: Untreated (control) mice died quickly with a median survival of 13 days (not shown).
In another study, mice were inoculated i.p. with C-26 cells (10^6 cells).

[7] = Solubility and precipitation of doxorubicin in ammonium salt solutions; type: physicochemical
Procedure: The higher release rate is a result of using glucuronate as the balancing anion. […] In addition, doxorubicin precipitates at less than 2 mM concentration in the presence of sulfate ions, while a much higher concentration of doxorubicin is required for precipitation to occur in the presence of glucuronate ions. Accordingly, when glucuronate is the balancing anion, more of the therapeutic agent is in a soluble form and therefore it is more available for release from the liposomes. Further, the permeability of glucuronate through the liposomal membranes is very low, possibly due to its low pKa, its bulkiness and/or polarity, making it very efficient for maintaining the ammonium ion gradient for loading of the therapeutic agents.

For `COc1cccc2c1C(=O)c1c(O)c3c(c(O)c1C2=O)C[C@@](O)(C(=O)CO)C[C@@H]3O[C@H]1C[C@H](N)[C@H](O)[C@H](C)O1` [free doxorubicin, doxorubicin], the “Doxorubicin Uptake” value (KB-V [1]; 1 hr exposure) was 311 (22) ng DOX/10^6 cells, the “Doxorubicin Uptake” value (KB-V [1]; 5 hr exposure) was 931 (21) ng DOX/10^6 cells and the “Doxorubicin Uptake” value (KB [2]; 1 hr exposure) was 426 (33) ng DOX/10^6 cells. For the same compound, the “Doxorubicin Uptake” value (KB [2]; 5 hr exposure) was 937 (46) ng DOX/10^6 cells, the “Doxorubicin Uptake” value (KB [2]; 24 hr exposure) was 840 (15) ng DOX/10^6 cells and the IC50 (M109-R [3]) was 2000 nM. The IC50 (M109-S) was 560 nM, the “Doxorubicin Uptake” value (M109-R [4]) was 80 (3) ng DOX/10^6 cells and the IC50 (KB-V [5]) was 690 nM. For the same compound, the IC50 (KB [6]) was 40 nM, the IC50 (C26) was 960 nM and the “increase in mean survival time over control” value (C-26 cells) was 4 days. The mean survival time (C-26 cells) was 17 days, the “solubility in 250 mM ammonium glucuronate relative to 250 mM ammonium sulfate” value ([7]; 250 mM AG solution vs 250 mM AS solution) was “approximately 100 fold” and the “concentration at which doxorubicin precipitates” value ([7]; in the presence of sulfate ions) was “less than 2 mM”.
